Results published in US20170190671A1, “BIS(ARYL)CATECHOL DERIVATIVES AS HERBICIDES” (E I DU PONT DE NEMOURS AND COMPANY, priority 2014, published 2017).

How the values were obtained:
Assay type in all cases: in vivo
[1] = tested on: corn (Zea mays); assay: Test A postemergence; conditions: Zea mays, post-emergence, 240 h, 0 to 100 scale
Method in brief: (§1)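 Greenhouse pot test, loam/sand soil. Formulation: non-phytotoxic solvent mix plus surfactant. Pre: directed spray onto soil after sowing. Post: plants at 1–2 leaf, 2–10 cm. Rated visually vs untreated controls at ~10 d, 0 (no effect) to 100 (complete control).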

[2] = tested on: barnyardgrass (Echinochloa crus-galli); assay: Test A postemergence; conditions: Echinochloa crus-galli, post-emergence, 240 h, 0 to 100 scale, read-out: Plant response rating, Barnyardgrass
Method in brief: as §1

[3] = tested on: giant foxtail (Setaria faberii); assay: Test A postemergence; conditions: Setaria faberi, post-emergence, 240 h, 0 to 100 scale, read-out: Plant response rating, Foxtail, Giant
Method in brief: as §1

[4] = tested on: kochia (Kochia scoparia); assay: Test A postemergence; conditions: Bassia scoparia, post-emergence, 240 h, 0 to 100 scale, read-out: Plant response rating, Kochia
Method in brief: as §1

[5] = tested on: blackgrass (Alopecurus myosuroides); assay: Test A postemergence; conditions: Alopecurus myosuroides, post-emergence, 240 h, 0 to 100 scale, read-out: Plant response rating, Blackgrass
Method in brief: as §1

[6] = tested on: pigweed (Amaranthus retroflexus); assay: Test A postemergence; conditions: Amaranthus retroflexus, post-emergence, 240 h, 0 to 100 scale, read-out: Plant response rating, Pigweed
Method in brief: as §1

[7] = tested on: galium (catchweed bedstraw, Galium aparine); assay: Test A postemergence; conditions: Galium, post-emergence, 240 h, 0 to 100 scale, read-out: Plant response rating, Galium
Method in brief: as §1

[8] = tested on: ragweed (common ragweed, Ambrosia elatior); assay: Test A postemergence; conditions: Ambrosia artemisiifolia, post-emergence, 240 h, 0 to 100 scale, read-out: Plant response rating, Ragweed
Method in brief: as §1

[9] = tested on: Italian ryegrass (Lolium multiflorum); assay: Test A postemergence; conditions: Lolium multiflorum, post-emergence, 240 h, 0 to 100 scale, read-out: Plant response rating, Ryegrass, Italian
Method in brief: as §1

[10] = tested on: wheat (Triticum aestivum); assay: Test A postemergence; conditions: Triticum aestivum, post-emergence, 240 h, 0 to 100 scale, read-out: Plant response rating, Wheat
Method in brief: as §1

[11] = tested on: sedge, umbrella (small-flower umbrella sedge, Cyperus difformis); assay: Test B flooded paddy; conditions: Cyperus difformis, 336 h; 250 g ai/ha, Flood, 13 to 15 days, scale 0 (no effect) to 100 (complete control); read-out: Plant response rating, Sedge, Umbrella
Method in brief: (§2)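 Ratings were visual and made relative to untreated controls after 13 to 15 greenhouse days.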

[12] = tested on: barnyardgrass (Echinochloa crus-galli); assay: Test B flooded paddy; conditions: Echinochloa crus-galli, 336 h; 250 g ai/ha, Flood, 13 to 15 days, scale 0 (no effect) to 100 (complete control); read-out: Plant response rating, Barnyardgrass
Method in brief: as §2

[13] = tested on: rice (Oryza sativa); assay: Test B flooded paddy; conditions: Oryza sativa, 336 h; 250 g ai/ha, Flood, 13 to 15 days, scale 0 (no effect) to 100 (complete control); read-out: Plant response rating, Rice
Method in brief: as §2

[14] = tested on: ducksalad (Heteranthera limosa); assay: Test B flooded paddy; conditions: Heteranthera limosa, 336 h; 250 g ai/ha, Flood, 13 to 15 days, scale 0 (no effect) to 100 (complete control); read-out: Plant response rating, Ducksalad
Method in brief: as §2

[15] = tested on: barnyardgrass (Echinochloa crus-galli); assay: Test A preemergence; conditions: Echinochloa crus-galli, pre-emergence, 240 h
Method in brief: as §1

[16] = tested on: giant foxtail (Setaria faberii); assay: Test A preemergence; conditions: Setaria faberi, pre-emergence, 240 h
Method in brief: as §1

[17] = tested on: kochia (Kochia scoparia); assay: Test A preemergence; conditions: Bassia scoparia, pre-emergence, 240 h
Method in brief: as §1

[18] = tested on: pigweed (Amaranthus retroflexus); assay: Test A preemergence; conditions: Amaranthus retroflexus, pre-emergence, 240 h
Method in brief: as §1

[19] = tested on: ragweed (common ragweed, Ambrosia elatior); assay: Test A preemergence; conditions: Ambrosia artemisiifolia, pre-emergence, 240 h
Method in brief: as §1

[20] = tested on: Italian ryegrass (Lolium multiflorum); assay: Test A preemergence; conditions: Lolium multiflorum, pre-emergence, 240 h
Method in brief: as §1

Structure (SMILES): N#Cc1cccc(Oc2ncc(Br)cn2)c1Oc1ccc(Cl)cn1 [Compound 11]
- Corn plant response rating (crop injury, 0 = no effect, 100 = complete kill) at 31 g/ha ([1]; 31 g ai/ha): 10%
- Corn plant response rating (crop injury, 0 = no effect, 100 = complete kill) at 125 g/ha ([1]; 125 g ai/ha): 30%
- Corn plant response rating (crop injury, 0 = no effect, 100 = complete kill) at 500 g/ha ([1]; 500 g ai/ha): 100%
- pest or weed control at 31 g/ha ([2]; 31 g ai/ha): 0%
- pest or weed control at 125 g/ha ([2]; 125 g ai/ha): 80%
- pest or weed control at 500 g/ha ([2]; 500 g ai/ha): 100%
- pest or weed control at 31 g/ha ([3]; 31 g ai/ha): 0%
- pest or weed control at 125 g/ha ([3]; 125 g ai/ha): 95%
- pest or weed control at 500 g/ha ([3]; 500 g ai/ha): 100%
- pest or weed control at 31 g/ha ([4]; 31 g ai/ha): 40%
- pest or weed control at 125 g/ha ([4]; 125 g ai/ha): 95%
- pest or weed control at 500 g/ha ([4]; 500 g ai/ha): 100%
- pest or weed control at 31 g/ha ([5]; 31 g ai/ha): 10%
- pest or weed control at 125 g/ha ([5]; 125 g ai/ha): 90%
- pest or weed control at 500 g/ha ([5]; 500 g ai/ha): 100%
- pest or weed control at 31 g/ha ([6]; 31 g ai/ha): 100%
- pest or weed control at 125 g/ha ([6]; 125 g ai/ha): 100%
- pest or weed control at 500 g/ha ([6]; 500 g ai/ha): 100%
- pest or weed control at 31 g/ha ([7]; 31 g ai/ha): 70%
- pest or weed control at 125 g/ha ([7]; 125 g ai/ha): 100%
- pest or weed control at 500 g/ha ([7]; 500 g ai/ha): 100%
- pest or weed control at 31 g/ha ([8]; 31 g ai/ha): 0%
- pest or weed control at 125 g/ha ([8]; 125 g ai/ha): 10%
- pest or weed control at 500 g/ha ([8]; 500 g ai/ha): 10%
- pest or weed control at 31 g/ha ([9]; 31 g ai/ha): 0%
- pest or weed control at 125 g/ha ([9]; 125 g ai/ha): 25%
- pest or weed control at 500 g/ha ([9]; 500 g ai/ha): 90%
- plant injury at 31 g/ha ([10]; 31 g ai/ha): 20%
- plant injury at 125 g/ha ([10]; 125 g ai/ha): 50%
- plant injury at 500 g/ha ([10]; 500 g ai/ha): 90%
- pest or weed control at 250 g/ha [11]: 85%
- pest or weed control at 250 g/ha [12]: 0%
- plant injury at 250 g/ha [13]: 0%
- pest or weed control at 250 g/ha [14]: 100%
- pest or weed control at 31 g/ha ([15]; 31 g ai/ha, 0 to 100 scale (0 no effect, 100 complete control), read-out: Barnyardgrass plant response rating): 0%
- pest or weed control at 125 g/ha ([15]; 125 g ai/ha, 0 to 100 scale, read-out: Plant response rating, Barnyardgrass): 80%
- pest or weed control at 500 g/ha ([15]; 500 g ai/ha, 0 to 100 scale, read-out: Plant response rating, Barnyardgrass): 100%
- pest or weed control at 31 g/ha ([16]; 31 g ai/ha, 0 to 100 scale (0 no effect, 100 complete control), read-out: Foxtail, Giant plant response rating): 20%
- pest or weed control at 125 g/ha ([16]; 125 g ai/ha, 0 to 100 scale, read-out: Plant response rating, Foxtail, Giant): 100%
- pest or weed control at 500 g/ha ([16]; 500 g ai/ha, 0 to 100 scale, read-out: Plant response rating, Foxtail, Giant): 100%
- pest or weed control at 31 g/ha ([17]; 31 g ai/ha, 0 to 100 scale (0 no effect, 100 complete control), read-out: Kochia plant response rating): 10%
- pest or weed control at 125 g/ha ([17]; 125 g ai/ha, 0 to 100 scale, read-out: Plant response rating, Kochia): 75%
- pest or weed control at 500 g/ha ([17]; 500 g ai/ha, 0 to 100 scale, read-out: Plant response rating, Kochia): 100%
- pest or weed control at 31 g/ha ([18]; 31 g ai/ha, 0 to 100 scale (0 no effect, 100 complete control), read-out: Pigweed plant response rating): 90%
- pest or weed control at 125 g/ha ([18]; 125 g ai/ha, 0 to 100 scale, read-out: Plant response rating, Pigweed): 100%
- pest or weed control at 500 g/ha ([18]; 500 g ai/ha, 0 to 100 scale, read-out: Plant response rating, Pigweed): 100%
- pest or weed control at 31 g/ha ([19]; 31 g ai/ha, 0 to 100 scale (0 no effect, 100 complete control), read-out: Ragweed plant response rating): 0%
- pest or weed control at 125 g/ha ([19]; 125 g ai/ha, 0 to 100 scale, read-out: Plant response rating, Ragweed): 0%
- pest or weed control at 500 g/ha ([19]; 500 g ai/ha, 0 to 100 scale, read-out: Plant response rating, Ragweed): 10%
- pest or weed control at 31 g/ha ([20]; 31 g ai/ha, 0 to 100 scale (0 no effect, 100 complete control), read-out: Ryegrass, Italian plant response rating): 0%
- pest or weed control at 125 g/ha ([20]; 125 g ai/ha, 0 to 100 scale, read-out: Plant response rating, Ryegrass, Italian): 10%
- pest or weed control at 500 g/ha ([20]; 500 g ai/ha, 0 to 100 scale, read-out: Plant response rating, Ryegrass, Italian): 90%
